Test results: the NIST ThermoML archive (doi:10.1021/acs.jced.9b00535)
± gives the expanded uncertainty stated by the source. Blank lines part the entries; values can stand above or below the molecule they belong to.

Details: Liquid, Ebulliometric method (Recirculating still)

vapor or sublimation pressure (439.15 K): 101.3 ± 3 kPa
Compound: CC(=O)N(C)C [N,N-dimethylethanamide]

Compound: CC(=O)CC(C)C [4-methylpentan-2-one]
vapor or sublimation pressure (389.15 K): 101.3 ± 3 kPa

vapor or sublimation pressure (390.75 K): 101.3 ± 3 kPa
Compound: CCCCO [butan-1-ol]
